Source: paper PMC6160999, “Pharmacokinetics, Tissue Distribution and Excretion of a Novel Diuretic (PU-48) in Rats” (Pharmaceutics, 2018)
“And” between values parts separate entries of the source, which are not always exact repeats. Equal values may be shown once.

What was measured:
[1] = Urine and feces excretion after single oral PU-48 SNEDDS; type: in vivo; conditions: rat, oral PU-48 SNEDDS 12 mg/kg
Procedure: Internal standard (IS, 25 μL) was added to 50 μL plasma, urine, or bile sample in a clean tube, placed into a water bath at 37 °C, and dried under a gentle stream of nitrogen gas, followed by the addition of 0.5 mL of ethyl acetate for liquid-liquid extraction. The mixture was shaken by a vortex mixer for 3 min, and then centrifuged at 8000 rpm (4200× g) for 10 min at 4 °C. After centrifugation, the upper organic phase was transferred into a clean centrifuge tube and then dried it again. The combined upper organic phases were evaporated to dryness at 37 °C under a gentle stream of nitrogen gas. The residue was reconstituted with 50 μL acetonitrile and then centrifuged at 13,000 rpm (12,000× g) for 10 min at 4 °C, the upper liquid was transferred into sample vials. Finally, 5 μL aliquots were injected into the LC–MS/MS system to analyze. Each tissue samples were homogenized in normal saline (0.9% NaCl, 1:3, w/v), and then centrifuged at 10,000× g for 10 min to get the supernatant. Other steps were the same as plasma sample preparation.
Feces samples were homogenized in 0.9% NaCl solution (1 g/10 mL), vortexed for 1 min and then centrifuged at 1200× g for 15 min to gather the supernatant. A volume of 25 μL of IS was added to 500 μL mixture in a clean tube, placed into a water bath at 37 °C and dried under a gentle stream of nitrogen gas, followed by the addition of 2 mL of ethyl acetate for twice liquid-liquid extraction (total 4 mL). The residue was reconstituted with 50 μL mobile phase and then 5 μL aliquots were injected into the HPLC system to analyze.
Six male rats were given single orally administration of PU-48 (12 mg/kg, 1.2 mg/mL in the SNEDDS formulation) and housed in separate stainless-steel metabolism cages. Both feces and urine samples were collected at 0–1, 1–2, 2–4, 4–6, 6–8, 8–12, 12–24, 24–48, 48–72 and 72–96 h. In a separate study, bile samples were collected 0–1, 1–2, 2–4, 4–6, 6–8, 8–12, 12–24, 24–48, 48–72 and 72–96 h after oral administration of PU-48 (12 mg/kg, 1.2 mg/mL in the SNEDDS formulation) to six bile duct-cannulated rats.

[2] = system: plasma protein; assay: Plasma protein binding by equilibrium dialysis, human plasma; type: in vitro ADME; conditions: for Concentration in Buffer (post-dialysis) / Concentration in Plasma (post-dialysis) / Protein-Binding Ratio: human plasma, n=5; for Concentration in Buffer (post-dialysis) / Concentration in Plasma (post-dialysis): 37 °C 24 h
Procedure: The concentration of PU-48 prototype in biological sample (feces and plasma protein binding analysis) was determined using a validated high-performance liquid chromatographic (HPLC) method our preliminary experiment (See Supplementary Materials HPLC Analysis and Method Validation). Briefly, the quantitative analysis of PU-48 was performed using a HPLC consistent of model 510 pump with a model 2487 ultraviolet detector, a model Rheodyne 7725 injector, and a column oven. The analytical conditions were as follows—The detection wavelength—293 nm; analytical column—a reversed-phase Acclaim C18 (4.6 mm × 250 mm, 5.0 µm, Dionex, Sunnyvale, CA, USA); column temperature—25 °C; mobile phase—acetonitrile—distilled water at a ratio of 60:40 (v/v); flow rate—1 mL/min. In this study, the methods for the feces samples were evaluated for specificity, linearity, precision, accuracy, and recovery (See Supplementary Materials Tables S4–S6).
The binding ratio of PU-48 to plasma protein was determined by equilibrium dialysis. A volume of 1 mL of plasma with PU-48 (0.25, 1 and 4 µg/mL) was added to a semi-permeable membrane bag (plasma chamber), the bag was place into the other clean tube with 9 mL PBS (buffer chamber). The equilibrium dialysis was performed at 37 °C for 24 h. At the end of dialysis, 500 μL each of post-dialysis samples from the plasma and the buffer chambers were collected and analyzed by HPLC method. The plasma protein binding of PU-48 was calculated from the concentration of PU-48 in PBS (free concentration) and in plasma (free + bound) according to equation: Bound (%) = (Concplasma chamber − Concbuffer chamber)/Concplasma chamber × 100%.

[3] = system: IMCD urea transporter UT-As; design: method as in PMID 25298345, PMID 12133842, PMID 12965892, PMID 23597791, PMID 24210002; conditions: rodents, compared to the other thienoquinolin lead compounds; cited from earlier work

Accumulative Excretion Amount, urine ([1]; 0–1 h): 61.2 ± 13.4 ng | Accumulative Excretion Percentage, urine ([1]; 0–1 h): 0.0022 ± 0.0005% | Excretion Amount, urine ([1]; 0–1 h): 61.2 ± 13.4 ng | PU-48 Concentration in urine ([1]; 0–1 h): 627.9 ± 94.1 ng/mL | Accumulative Excretion Amount, feces ([1]; 0–6 h): 0.1 µg | Accumulative Excretion Percentage, feces ([1]; 0–6 h): 0.0022% | Excretion Amount, feces ([1]; 0–6 h): 0.1 µg | PU-48 Concentration in feces ([1]; 0–6 h): 0.1 µg/mL | Accumulative Excretion Amount, urine ([1]; 1–2 h): 131.8 ± 37.9 ng | Accumulative Excretion Percentage, urine ([1]; 1–2 h): 0.0047 ± 0.0015% | Excretion Amount, urine ([1]; 1–2 h): 80.8 ± 41.0 ng | PU-48 Concentration in urine ([1]; 1–2 h): 376.3 ± 184.2 ng/mL | Accumulative Excretion Amount, urine ([1]; 2–4 h): 203.6 ± 48.4 ng | Accumulative Excretion Percentage, urine ([1]; 2–4 h): 0.0073 ± 0.0018% | Excretion Amount, urine ([1]; 2–4 h): 107.7 ± 30.0 ng | PU-48 Concentration in urine ([1]; 2–4 h): 97.3 ± 20.1 ng/mL | Accumulative Excretion Amount, urine ([1]; 4–6 h): 345.3 ± 107.2 ng | Accumulative Excretion Percentage, urine ([1]; 4–6 h): 0.0123 ± 0.0038% | Excretion Amount, urine ([1]; 4–6 h): 141.7 ± 78.0 ng | PU-48 Concentration in urine ([1]; 4–6 h): 156.3 ± 65.6 ng/mL | Accumulative Excretion Amount, feces ([1]; 6–8 h): 0.4 µg | Accumulative Excretion Percentage, feces ([1]; 6–8 h): 0.0128% | Excretion Amount, feces ([1]; 6–8 h): 0.4 µg | PU-48 Concentration in feces ([1]; 6–8 h): 0.4 µg/mL | Accumulative Excretion Amount, urine ([1]; 6–12 h): 496.4 ± 129.9 ng | Accumulative Excretion Percentage, urine ([1]; 6–12 h): 0.0178 ± 0.0048% | Excretion Amount, urine ([1]; 6–12 h): 151.1 ± 94.8 ng | PU-48 Concentration in urine ([1]; 6–12 h): 83.6 ± 56.6 ng/mL | Accumulative Excretion Amount, feces ([1]; 8–12 h): 12.5 ± 14.6 µg | Accumulative Excretion Percentage, feces ([1]; 8–12 h): 0.44 ± 0.51% | Excretion Amount, feces ([1]; 8–12 h): 12.5 ± 14.5 µg | PU-48 Concentration in feces ([1]; 8–12 h): 6.9 ± 6.5 µg/mL | Accumulative Excretion Amount, feces ([1]; 12–24 h): 31.5 ± 21.4 µg | Accumulative Excretion Amount, urine ([1]; 12–24 h): 850.7 ± 589.4 ng | Accumulative Excretion Percentage, feces ([1]; 12–24 h): 1.11 ± 0.73% | Accumulative Excretion Percentage, urine ([1]; 12–24 h): 0.0306 ± 0.0216% | Excretion Amount, feces ([1]; 12–24 h): 19.0 ± 11.3 µg | Excretion Amount, urine ([1]; 12–24 h): 354.3 ± 485.8 ng | PU-48 Concentration in feces ([1]; 12–24 h): 9.4 ± 5.3 µg/mL | PU-48 Concentration in urine ([1]; 12–24 h): 65.3 ± 94.6 ng/mL | Accumulative Excretion Percentage, urine ([1]; 24–36 h): 0.0380 ± 0.0250% | Excretion Amount, urine ([1]; 24–36 h): 207.5 ± 123.7 ng | PU-48 Concentration in urine ([1]; 24–36 h): 45.0 ± 36.9 ng/mL | Accumulative Excretion Amount, feces ([1]; 24–48 h): 41.0 ± 21.7 µg | Accumulative Excretion Percentage, feces ([1]; 24–48 h): 1.45 ± 0.74% | Excretion Amount, feces ([1]; 24–48 h): 9.5 ± 9.5 µg | PU-48 Concentration in feces ([1]; 24–48 h): 1.8 ± 1.9 µg/mL | Excretion Amount, urine ([1]; 36–48 h): 158.4 ± 125.3 ng | PU-48 Concentration in urine ([1]; 36–48 h): 25.6 ± 27.4 ng/mL | Accumulative Excretion Amount, feces ([1]; 48–72 h): 44.3 ± 22.1 µg | Accumulative Excretion Amount, urine ([1]; 48–72 h): 1319.8 ± 734.0 ng | Accumulative Excretion Percentage, feces ([1]; 48–72 h): 1.56 ± 0.75% | Accumulative Excretion Percentage, urine ([1]; 48–72 h): 0.0473 ± 0.0267% | Excretion Amount, feces ([1]; 48–72 h): 3.2 ± 4.4 µg | Excretion Amount, urine ([1]; 48–72 h): 103.2 ± 94.5 ng | PU-48 Concentration in feces ([1]; 48–72 h): 0.5 ± 0.7 µg/mL | PU-48 Concentration in urine ([1]; 48–72 h): 7.5 ± 5.9 ng/mL | Accumulative Excretion Amount, urine ([1]; 72-96 h (within 96 h)): 1458.5 ± 733.1 ng | Excretion Amount, urine ([1]; 72-96 h): 138.7 ± 101.2 ng | PU-48 Concentration in urine ([1]; 72-96 h): 9.0 ± 5.4 ng/mL | Accumulative Excretion Amount, feces ([1]; 72–96 h (within 96 h)): 45.5 ± 22.0 µg | Accumulative Excretion Percentage, feces ([1]; 72–96 h (within 96 h)): 1.61 ± 0.74% and 1.60% | Excretion Amount, feces ([1]; 72–96 h): 1.2 ± 1.4 µg | PU-48 Concentration in feces ([1]; 72–96 h): 0.2 ± 0.2 µg/mL | Total excretion of PU-48 parent drug in the urine, feces, and bile ([1]; within 96 h): less than 2% | Concentration in Buffer (post-dialysis) ([2]; added 0.25 µg/mL): 12 ± 3 ng/mL | Concentration in Plasma (post-dialysis) ([2]; added 0.25 µg/mL): 146 ± 8 ng/mL | Protein-Binding Ratio ([2]; added 0.25 µg/mL): 91.60 ± 1.57% | Concentration in Buffer (post-dialysis) ([2]; added 1 µg/mL): 52 ± 3 ng/mL | Concentration in Plasma (post-dialysis) ([2]; added 1 µg/mL): 611 ± 27 ng/mL | Protein-Binding Ratio ([2]; added 1 µg/mL): 91.48 ± 0.64% | Concentration in Buffer (post-dialysis) ([2]; added 4 µg/mL): 231 ± 29 ng/mL | Concentration in Plasma (post-dialysis) ([2]; added 4 µg/mL): 2290 ± 93 ng/mL | Protein-Binding Ratio ([2]; added 4 µg/mL): 89.90 ± 1.50% | fraction unbound at 24 h ([2]; plasma, human, overall statement): < 0.1
SMILES: COC(=O)c1sc2nc3ccc(OC)cc3cc2c1N [PU-48, Methyl 3-amino-6-methoxythieno [2,3-b] quinoline-2-carboxylate]
Accumulative Excretion Percentage, urine ([1]; 72-96 h (within 96 h)): 0.0523 ± 0.0267% and 0.052 ± 0.0267% and 0.052% | Selective inhibition towards IMCD urea transporter UT-As [3]: higher selective inhibition
